From US20220000873A1, “S3QELS TO PROTECT AGAINST INTESTINAL PERMEABILITY” (Buck Institute for Research on Aging, priority 2018, published 2022)

How the values were obtained:
[1] = system: C57BL/6 mice fed a high-fat diet; assay: Mouse intestinal permeability (plasma FITC-dextran after gavage and fecal albumin); assay type: in vivo; conditions: high-fat diet (60% kcal) with 200 mg/kg S3QEL in diet, 16 weeks; plasma FITC-dextran and fecal albumin (FIG. 5A, B)
Experimental: (§1) Six-week-old C57BL/6 mice were purchased from Jackson Laboratories and acclimated in-house for two weeks before the study. At 8 weeks of age, mice were randomized into groups based on weight and fed either a control semi-purified diet D12450J containing 10% fat kcal, a 60% fat kcal diet D12492, or a custom-mixed 60% fat kcal diet D12492 containing 200 mg/kg of S3QELs. Diets were purchased from Research Diets and were gamma-irradiated. Mice were maintained on the experimental diets for 16 weeks in total. Food consumption was measured daily in a semiquantitative fashion. The food was weighed before placing in the cage, and then weighed again 24 h later. The total food weight difference within 24 h was divided by the number of mice in the cage to determine average food consumption per mouse. All experiments involving the use of mice were reviewed and approved by the Institutional Animal Care and Use Committee (IACUC) of the Buck Institute.
Mice were fasted for 4 h prior to assay. […] Blood plasma samples were diluted appropriately using 1×PBS and FITC-dextran fluorescence was measured at Ex 485 nm/Em 535 nm. FITC-dextran amount was determined using standard curves generated from a known amount of FITC-dextran titrated in plasma from control or high fat-fed mice. […]

[2] = system: C57BL/6 mice fed a high-fat diet; assay: Mouse intestinal gene expression (qPCR, colon and distal small intestine); assay type: in vivo; conditions: high-fat diet with 200 mg/kg S3QEL, 16 weeks
Experimental: as §1, with “The total food weight difference within 24 h was divided by the number of mice in the cage to determine average food consumption per mouse. All experiments involving the use of mice were reviewed and approved by the Institutional Animal Care and Use Committee (IACUC) of the Buck Institute.” left out
RNA from the fly intestine lysates, and the aqueous phase from the mouse intestinal Trizol lysates, were further processed to isolate RNA using a Quick-RNA™ MiniPrep Kit (Zymo Research) according to the manufacturer's guidelines. […] The quantity and quality of fly and mouse RNA samples were determined using a NanoDrop 1000 spectrophotometer (Thermo Scientific). 1 μg of total RNA from either fly or mouse intestine was used in a total reaction volume of […] containing 4 μL of iScript Reverse Transcription Supermix (Bio-Rad) to synthesize cDNA according to the manufacturer's guidelines. cDNA was stored at −20° C. before carrying out quantitative RTPCR. […]

Cc1ccc(-n2ncc3c(N(Cc4ccccc4)C(C)C)ncnc32)cc1Cl [S3QEL2.2]
increases in intestinal permeability in mice [1]: strongly protected
decrease in tight-junction gene expression ([2]; both colon and distal small intestine (FIG. 5C, FIG. 11)): protected against the decrease
decrease in mucin gene expression ([2]; both colon and distal small intestine (FIG. 5D, FIG. 11)): protected against the decrease
